Data from patent US20120009222A1, “MODULATION OF THE IMMUNE RESPONSE” (priority 2008, published 2012).

Columns and labels:
[1] = test system: serum IFN-alpha; assay: Systemic Type 1 interferon response: serum IFN-alpha by ELISA; details: siRNA in lyophilized ND(5)-98-1 nanoparticles, 2 mg/kg IV twice
Experimental: Mice were injected IV twice with lyophilized ND(5)-98-1 (ND98)-siRNA nanoparticles at 2 mg/kg siRNA prior to (a) infection with 12,000 PFU, or (b) blood collection by cardiac puncture. […] (b) Serum IFN-alpha concentration was determined by ELISA.

[2] = test system: influenza virus; assay: Inhibition of influenza viral replication in mouse lung (plaque forming assay); set-up: species or system mice; details: in vivo, iv, 2 mg/kg
[3] = target: T1, TLR7 (Homo sapiens, UniProt Q9NYK1); details: cited from earlier work
T1 construct: host or cells: human PBMCs (endogenous receptor)
T1 sequence (Q9NYK1 27-1049): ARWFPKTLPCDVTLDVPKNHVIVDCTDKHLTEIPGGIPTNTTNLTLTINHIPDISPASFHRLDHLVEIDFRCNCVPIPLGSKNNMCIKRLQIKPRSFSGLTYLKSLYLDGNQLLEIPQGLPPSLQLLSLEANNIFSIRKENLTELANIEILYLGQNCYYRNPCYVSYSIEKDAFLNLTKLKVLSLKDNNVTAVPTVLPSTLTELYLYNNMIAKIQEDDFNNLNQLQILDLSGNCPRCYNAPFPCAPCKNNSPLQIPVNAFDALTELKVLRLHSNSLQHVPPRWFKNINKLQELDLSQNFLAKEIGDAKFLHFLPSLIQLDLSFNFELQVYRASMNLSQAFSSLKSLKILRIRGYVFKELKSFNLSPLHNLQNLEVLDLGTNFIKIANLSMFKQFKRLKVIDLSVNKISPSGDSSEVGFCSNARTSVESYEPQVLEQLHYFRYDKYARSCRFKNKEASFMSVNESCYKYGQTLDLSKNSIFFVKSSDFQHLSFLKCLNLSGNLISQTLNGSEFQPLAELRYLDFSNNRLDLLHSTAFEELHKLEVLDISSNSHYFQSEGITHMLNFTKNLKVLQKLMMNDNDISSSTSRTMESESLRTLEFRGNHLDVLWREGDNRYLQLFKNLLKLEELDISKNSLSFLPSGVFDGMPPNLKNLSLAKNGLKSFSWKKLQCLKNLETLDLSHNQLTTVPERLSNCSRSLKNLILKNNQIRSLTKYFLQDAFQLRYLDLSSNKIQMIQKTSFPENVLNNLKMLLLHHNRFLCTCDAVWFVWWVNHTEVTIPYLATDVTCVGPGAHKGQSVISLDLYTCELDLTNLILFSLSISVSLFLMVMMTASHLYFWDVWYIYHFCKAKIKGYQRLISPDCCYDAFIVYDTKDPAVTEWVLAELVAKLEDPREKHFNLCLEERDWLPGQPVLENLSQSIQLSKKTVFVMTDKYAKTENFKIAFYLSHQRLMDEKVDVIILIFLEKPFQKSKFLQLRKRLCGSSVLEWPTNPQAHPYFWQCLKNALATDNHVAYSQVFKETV

[4] = target: T2, TLR8 (Homo sapiens, UniProt Q9NR97); details: cited from earlier work
T2 construct: a strong ligand for both TLR7 and TLR8 in vitro in human PBMCs tranfected with DOTAP; host or cells: human PBMCs (endogenous receptor)
T2 sequence (Q9NR97 27-1041): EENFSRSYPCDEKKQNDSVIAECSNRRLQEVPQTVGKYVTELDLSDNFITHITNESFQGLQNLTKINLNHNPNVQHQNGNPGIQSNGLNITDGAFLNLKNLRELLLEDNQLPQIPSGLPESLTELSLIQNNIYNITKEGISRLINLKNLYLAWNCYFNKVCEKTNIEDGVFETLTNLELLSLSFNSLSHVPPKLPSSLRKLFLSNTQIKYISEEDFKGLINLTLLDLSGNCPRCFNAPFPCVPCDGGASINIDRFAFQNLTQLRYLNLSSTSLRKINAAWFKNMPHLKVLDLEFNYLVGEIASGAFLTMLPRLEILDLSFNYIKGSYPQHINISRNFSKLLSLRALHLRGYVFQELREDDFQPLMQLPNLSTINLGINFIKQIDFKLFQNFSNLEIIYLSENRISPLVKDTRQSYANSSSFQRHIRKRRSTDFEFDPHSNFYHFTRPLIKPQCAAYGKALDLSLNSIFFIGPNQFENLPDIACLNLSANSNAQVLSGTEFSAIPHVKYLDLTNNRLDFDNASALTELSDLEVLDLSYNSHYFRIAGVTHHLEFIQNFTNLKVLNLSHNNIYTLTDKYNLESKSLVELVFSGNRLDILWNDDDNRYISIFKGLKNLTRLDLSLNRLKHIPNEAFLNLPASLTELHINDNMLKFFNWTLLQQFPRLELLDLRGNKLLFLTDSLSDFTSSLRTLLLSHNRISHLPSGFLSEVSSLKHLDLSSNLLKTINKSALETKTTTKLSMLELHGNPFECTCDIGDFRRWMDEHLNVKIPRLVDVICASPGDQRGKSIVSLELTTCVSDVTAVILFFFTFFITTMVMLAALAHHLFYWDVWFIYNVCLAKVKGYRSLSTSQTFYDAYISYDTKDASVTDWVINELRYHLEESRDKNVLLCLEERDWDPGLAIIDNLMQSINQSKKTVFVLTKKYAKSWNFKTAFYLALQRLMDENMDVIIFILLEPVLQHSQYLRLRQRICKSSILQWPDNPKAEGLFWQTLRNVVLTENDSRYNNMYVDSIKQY

| Substance | serum IFN-alpha [1] | viral titer versus nanoparticles formulated with siGFP-949 [2] | TLR7 agonist activity [3] | TLR8 agonist activity [4] |
| --- | --- | --- | --- | --- |
| 5′-CUACACAAAUCAGCGAUUUUU-3′ [siBgal-728] | high levels | significant reductions |  |  |
| 5′-GCCACCGAGCCGAAGGCACC-3′ (all phosphorothioate, sugars by position and methylation of C not given here; lipidoid formulation) [R1263] |  |  | low | low |
| 5′-GGAUCUUAUUUCUUCGGAGUU-3′ [siNP-1496] | high levels | significant reductions |  |  |
| 5′-UUGUUGUUGUUGUUGUUGUU-3′ (all phosphorothioate, sugars by position not given here; lipidoid formulation) [R1362] |  |  | highly active | highly active |
